For 30 compounds, IC50 results are on record in patent publication US9169260B2 (MERCK SHARP & DOHME CORP., priority 2011, dated 2015).

Sequence of GST tagged IRAK-4 (Q9NWZ3 whole entry): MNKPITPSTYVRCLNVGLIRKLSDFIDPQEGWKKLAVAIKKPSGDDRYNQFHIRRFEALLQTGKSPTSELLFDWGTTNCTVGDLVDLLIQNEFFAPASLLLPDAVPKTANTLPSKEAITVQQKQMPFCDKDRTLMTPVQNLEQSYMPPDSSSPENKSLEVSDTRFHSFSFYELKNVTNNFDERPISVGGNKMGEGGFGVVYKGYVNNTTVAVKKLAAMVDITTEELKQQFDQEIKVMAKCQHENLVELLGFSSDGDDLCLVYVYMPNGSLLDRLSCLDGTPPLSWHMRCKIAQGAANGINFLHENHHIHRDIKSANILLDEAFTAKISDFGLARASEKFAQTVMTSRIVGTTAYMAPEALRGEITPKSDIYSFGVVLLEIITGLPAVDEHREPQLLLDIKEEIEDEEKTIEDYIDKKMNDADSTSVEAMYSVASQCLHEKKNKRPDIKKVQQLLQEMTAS

The first assay concerns the target GST tagged IRAK-4 (Homo sapiens (Human), UniProt Q9NWZ3). The experiment in a line: IRAK-4 Kinase Assay (IMAP fluorescence polarization). The format is biochemical.
Conditions: not given
Summed up:
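Activity was read by IMAP fluorescence polarization, where phosphopeptide binding to M(III) nanoparticles raises FP. The 30-minute, 25° C reaction used 100 μM ATP, 100 nM RP7030 substrate and 0.5 nM GST-IRAK-4 in pH 7.2 Tris buffer with MgCl2, DTT and Tween 20.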
A general note: In fluorescence polarisation assays a small probe gives low polarisation when free and higher when bound to something large.
The compound `Cc1ccc(-n2nc(C3CCN(S(C)(=O)=O)CC3)cc2NC(=O)c2cnn3cccnc23)cn1` [Example 168, N-(1-(6-methylpyridin-3-yl)-3-(1-(methylsulfonyl)piperidin-4-yl)-1H-pyrazol-5-yl)pyrazolo[1,5-a]pyrimidine-3-carboxamide] registered an IC50 of less than 1 µM.

Still in this assay, the particulars now being: 100 μM ATP, 30 minutes at 25° C.
`C[C@H](N)c1ccc(-n2nc(C3CCN(S(C)(=O)=O)CC3)cc2NC(=O)c2cnn3cccnc23)nc1` [Example 164, (S)—N-(1-(5-(1-aminoethyl)pyridin-2-yl)-3-(1-(methylsulfonyl)piperidin-4-yl)-1H-pyrazol-5-yl)pyrazolo[1,5-a]pyrimidine-3-carboxamide] returned an IC50 of less than 0.1 µM. Still for that read-out and setting: the same measure for `CS(=O)(=O)N1CCC(c2cc(NC(=O)c3cnn4cccnc34)n(-c3ccc(C=O)cn3)n2)CC1` [Example 165, N-(1-(5-formylpyridine-2-yl)-3-(1-(methylsulfonyl)piperidin-4-yl)-1H-pyrazol-5-yl)pyrazolo[1,5-a]pyrimidine-3-carboxamide]: less than 0.1 µM; for `Cc1cnc(-n2nc(C3CCN(S(C)(=O)=O)CC3)cc2NC(=O)c2cnn3cccnc23)nc1` [Example 170, N-(1-(5-methylpyrimidin-2-yl)-3-(1-(methylsulfonyl)piperidin-4-yl)-1H-pyrazol-5-yl)pyrazolo[1,5-a]pyrimidine-3-carboxamide]: less than 0.1 µM; for `CC1(c2cc(NC(=O)c3cnn4cccnc34)n(-c3ccc(CN)cn3)n2)CC1` [Example 176, N-(1-(5-(aminomethyl)pyridin-2-yl)-3-(1-methylcyclopropyl)-1H-pyrazol-5-yl)pyrazolo[1,5-a]pyrimidine-3-carboxamide]: less than 0.1 µM. Same read-out and setting: the same measure for `Cc1ccc(-n2nc(-c3ccc(S(=O)(=O)N4CCOCC4)cc3)cc2NC(=O)c2cnn3cccnc23)nc1` [Example 177, N-(1-(5-methylpyridin-2-yl)-3-(4-(morpholinosulfonyl)phenyl)-1H-pyrazol-5-yl)pyrazolo[1,5-a]pyrimidine-3-carboxamide]: less than 0.1 µM.

In turn, `Cc1ccc(-n2nc(-c3ccc(S(=O)(=O)N4CCN(C)CC4)cc3)cc2NC(=O)c2cnn3cccnc23)nc1` [Example 178, N-(3-(4-((4-methylpiperazin-1-yl)sulfonyl)phenyl)-1-(5-methylpyridin-2-yl)-1H-pyrazol-5-yl)pyrazolo[1,5-a]pyrimidine-3-carboxamide] gave an IC50 of less than 0.1 µM.

Regarding `Cc1ccc(-n2nc(-c3ccc(S(C)(=O)=O)cc3)cc2NC(=O)c2cnn3cccnc23)nc1` [Example 179, N-(1-(5-methylpyridin-2-yl)-3-(4-(methylsulfonyl)phenyl)-1H-pyrazol-5-yl)pyrazolo[1,5-a]pyrimidine-3-carboxamide], the IC50 is less than 0.1 µM. The same measure, in the same setting: the same measure for `Cc1ccc(-n2nc(C3CCC(N)CC3)cc2NC(=O)c2cnn3cccnc23)nc1` (stereo not drawn) [Example 185, N-(3-(4-aminocyclohexyl)-1-(5-methylpyridin-2-yl)-1H-pyrazol-5-yl)pyrazolo[1,5-a]pyrimidine-3-carboxamide]: less than 0.1 µM; for `O=C(Nc1cc(C2CCNCC2)nn1-c1nccs1)c1cnn2cccnc12` [Example 189, N-(3-(piperidin-4-yl)-1-(thiazol-2-yl)-1H-pyrazol-5-yl)pyrazolo[1,5-a]pyrimidine-3-carboxamide]: less than 0.1 µM; for `Cc1ccc(-n2nc(C3CCN(S(C)(=O)=O)CC3)cc2NC(=O)c2cnn3cc(C#N)cnc23)nc1` [Example 191, 6-cyano-N-(1-(5-methylpyridin-2-yl)-3-(1-(methylsulfonyl)piperidin-4-yl)-1H-pyrazol-5-yl)pyrazolo[1,5-a]pyrimidine-3-carboxamide]: less than 0.1 µM.

In turn, `CNS(=O)(=O)c1ccc(-c2cc(NC(=O)c3cnn4cc(Br)cnc34)n(-c3ccc(C)cn3)n2)cc1` [Example 194, 6-bromo-N-(1-(5-methylpyridin-2-yl)-3-(4-(N-methylsulfamoyl)phenyl)-1H-pyrazol-5-yl)pyrazolo[1,5-a]pyrimidine-3-carboxamide] registered an IC50 of less than 0.1 µM. On the same count and under the same terms, the same measure for `CNS(=O)(=O)c1ccc(-c2cc(NC(=O)c3cnn4cc(Cl)cnc34)n(-c3ccc(C)cn3)n2)cc1` [Example 196, 6-chloro-N-(1-(5-methylpyridin-2-yl)-3-(4-(N-methylsulfamoyl)phenyl)-1H-pyrazol-5-yl)pyrazolo[1,5-a]pyrimidine-3-carboxamide]: less than 0.1 µM; for `Cc1ccc(-n2nc(N3CCN(C)CC3)cc2NC(=O)c2cnn3cccnc23)nc1` [Example 197, N-(3-(4-methylpiperazin-1-yl)-1-(5-methylpyridin-2-yl)-1H-pyrazol-5-yl)pyrazolo[1,5-a]pyrimidine-3-carboxamide]: less than 0.1 µM. On the same count and under the same terms, the same measure for `[2H]C([2H])([2H])c1ccc(-n2nc(N3CCN(C)CC3)cc2NC(=O)c2cnn3cccnc23)nc1` [Example 198, N-(3-(4-methylpiperazin-1-yl)-1-(5-trideuteromethylpyridin-2-yl)-1H-pyrazol-5-yl)pyrazolo[1,5-a]pyrimidine-3-carboxamide]: less than 0.1 µM; for `Cc1ccc(-n2nc(N3CCN(S(C)(=O)=O)CC3)cc2NC(=O)c2cnn3cccnc23)nc1` [Example 199, N-(1-(5-methylpyridin-2-yl)-3-(4-(methylsulfonyl)piperazin-1-yl)-1H-pyrazol-5-yl)pyrazolo[1,5-a]pyrimidine-3-carboxamide]: less than 0.1 µM; for `[2H]C([2H])([2H])c1ccc(-n2nc(N3CCN(S(C)(=O)=O)CC3)cc2NC(=O)c2cnn3cccnc23)nc1` [Example 200, N-(1-(5-trideuteromethylpyridin-2-yl)-3-(4-(methylsulfonyl)piperazin-1-yl)-1H-pyrazol-5-yl)pyrazolo[1,5-a]pyrimidine-3-carboxamide]: less than 0.1 µM. Still for that read-out and setting: then `CN1CCN(c2cc(NC(=O)c3cnn4cccnc34)n(-c3ccc(C4CC4)cn3)n2)CC1` [Example 201, N-(1-(5-cyclopropylpyridin-2-yl)-3-(4-methylpiperazin-1-yl)-1H-pyrazol-5-yl)pyrazolo[1,5-a]pyrimidine-3-carboxamide], with less than 0.1 µM.

The assay is the same for the next values; noted with them: 100 μM ATP, 30 minutes at 25° C.; μM.
The compound `Cc1ccc(-n2nc(C3COCCN3)cc2NC(=O)c2cnn3cccnc23)nc1` (stereo not drawn) [Example 166, N-(1-(5-methylpyridin-2-yl)-3-(morpholin-3-yl)-1H-pyrazol-5-yl)pyrazolo[1,5-a]pyrimidine-3-carboxamide] yielded an IC50 of less than 1 µM. On the same count and under the same terms, the same measure for `Cc1ccc(-n2nc(C3CCNCC3)cc2NC(=O)c2cnn3cccnc23)cn1` [Example 167, N-(1-(6-methylpyridin-3-yl)-3-(piperidin-4-yl)-1H-pyrazol-5-yl)pyrazolo[1,5-a]pyrimidine-3-carboxamide]: more than 1 µM; for `Cc1cnc(-n2nc(C3CCN(S(=O)(=O)C4CC4)CC3)cc2NC(=O)c2cnn3cccnc23)nc1` [Example 171, N-(3-(1-(cyclopropylsulfonyl)piperidin-4-yl)-1-(5-methylpyrimidin-2-yl)-1H-pyrazol-5-yl)pyrazolo[1,5-a]pyrimidine-3-carboxamide]: less than 1 µM. On the same count and under the same terms, the same measure for `CS(=O)(=O)N1CCC(c2cc(NC(=O)c3cnn4cccnc34)n(-c3ccccn3)n2)CC1` [Example 173, N-(3-(1-(methylsulfonyl)piperidin-4-yl)-1-(pyridin-2-yl)-1H-pyrazol-5-yl)pyrazolo[1,5-a]pyrimidine-3-carboxamide]: less than 1 µM; for `Cc1ccc(-n2nc(C3CCN(S(C)(=O)=O)CC3)cc2NC(=O)c2cnn3cccnc23)nc1C` [Example 174, N-(1-(5,6-dimethylpyridin-2-yl)-3-(1-(methylsulfonyl)piperidin-4-yl)-1H-pyrazol-5-yl)pyrazolo[1,5-a]pyrimidine-3-carboxamide]: less than 1 µM. The compound `Cc1nn(C)c2nc(-n3nc(C4CCN(S(C)(=O)=O)CC4)cc3NC(=O)c3cnn4cccnc34)ccc12` [Example 175, N-(1-(1,3-dimethyl-1H-pyrazolo[3,4-b]pyridin-6-yl)-3-(1-(methylsulfonyl)piperidin-4-yl)-1H-pyrazol-5-yl)pyrazolo[1,5-a]pyrimidine-3-carboxamide] yielded an IC50 of less than 1 µM. Still for that read-out and setting: the same measure for `Cc1ccc(-n2nc(C3CC3)cc2NC(=O)c2cnn3cccnc23)nc1` [Example 180, N-(3-cyclopropyl-1-(5-methylpyridin-2-yl)-1H-pyrazol-5-yl)pyrazolo[1,5-a]pyrimidine-3-carboxamide]: more than 1 µM; for `Cc1ccc(-n2nc(C3(C)CC3)cc2NC(=O)c2cnn3cccnc23)nc1` [Example 181, N-(3-(1-methylcyclopropyl)-1-(5-methylpyridin-2-yl)-1H-pyrazol-5-yl)pyrazolo[1,5-a]pyrimidine-3-carboxamide]: more than 1 µM. Still for that read-out and setting: the same measure for `COc1cc(NC(=O)c2cnn3cccnc23)n(-c2ccc(C)cn2)n1` [Example 182, N-(3-methoxy-1-(5-methylpyridin-2-yl)-1H-pyrazol-5-yl)pyrazolo[1,5-a]pyrimidine-3-carboxamide]: less than 1 µM; for `CC(C)N1CCC(c2cc(NC(=O)c3cnn4cccnc34)n(-c3ncc[nH]3)n2)CC1` [Example 187, N-(1-(1H-imidazol-2-yl)-3-(1-isopropylpiperidin-4-yl)-1H-pyrazol-5-yl)pyrazolo[1,5-a]pyrimidine-3-carboxamide]: less than 1 µM; for `CS(=O)(=O)N1CCC(c2cc(NC(=O)c3cnn4cccnc34)n(-c3nccn3S(C)(=O)=O)n2)CC1` [Example 188, N-(1-(1-(methylsulfonyl)-1H-imidazol-2-yl)-3-(1-(methylsulfonyl)piperidin-4-yl)-1H-pyrazol-5-yl)pyrazolo[1,5-a]pyrimidine-3-carboxamide]: more than 1 µM. Still for that read-out and setting: the same measure for `CNS(=O)(=O)c1ccc(-c2cc(NC(=O)c3cnn4cc(C5CC5)cnc34)n(-c3ccc(C)cn3)n2)cc1` [Example 195, 6-cyclopropyl-N-(1-(5-methylpyridin-2-yl)-3-(4-(N-methylsulfamoyl)phenyl)-1H-pyrazol-5-yl)pyrazolo[1,5-a]pyrimidine-3-carboxamide]: less than 1 µM.

The term IC50 denotes the point on the concentration scale where inhibition reaches its midpoint.
